Data published in patent US20240165148A1, “HYALURONIC ACID-CONJUGATED DIPALMITOYL PHOSPHATIDYL ETHANOLAMINE IN COMBINATION WITH NON-STEROIDAL ANTI-INFLAMMATORY DRUGS (NSAIDS) FOR TREATING OR ALLEVIATING INFLAMMATORY DISEASES” (priority 2021, published 2024).
Entries after “also recorded” stand apart in the source; their conditions may differ.

Legend:
[1] = tested on: LTB4 production in the hippocampus (HC); settings: LPS-stimulated rats, Student's T test
Method: (§1) Male Sprague-Dawley rats were purchased from Harlan laboratories, fed ad libitum and housed in accordance with animal facility guidelines. Animals were assigned 10 each to the 7 groups, in accordance with the treatment protocol described below. Body temperature (BT) was measured at all treatment time-points, to evaluate the effects of drug treatment on the LPS-induced changes in BT. On the second day of the experiment, 2 hours post- drug treatment, rats were sacrificed by decapitation after a short anesthesia (with a mixture of isoflurane-oxygen in air inhalation), blood was collected and brain regions (hypothalamus and hippocampus) immediately extracted. Brain regions were manually homogenized in a PBS solution containing a cocktail of phosphatase/protease inhibitors. Homogenates were centrifuged at 4° C., 10,000 rpm, for 10 minutes. Supernatants were collected and stored at −80° C. for further determination.
(§2) Leukotriene B4 (LTB4) levels were determined in the hypothalamus and hippocampus samples, using commercially available ELISA kits.
(§3) Seven groups of rats, ten rats in each group, were administered treatment intra-peritoneally, according to the following treatment regimens: • 1)- Control group- Animals were treated with vehicle control (NaCl 0.9% 0.2 ml); • 2) LPS: Animals were treated with vehicle control at 6 and 2 hours prior to LPS (1 mg/kg) injection. […]

[2] = tested on: LTB4 production in the hypothalamus (HT); settings: LPS-stimulated rats, Student's T test
Method: as §1, §2, §3

With “Di-palmitoyl (C-16) phosphatidyl ethanolamine (DPPE) conjugated to hyaluronic acid (Hy) [HyDPPE]” the “Effect on LPS-induced LTB4 production (in words)” value [1] was “counteracted the LPS-induced production of LTB4; also recorded: reversed the increased LTB4 production” and the “Effect on LPS-induced LTB4 production (in words)” value [2] was “counteracted the LPS-induced production of LTB4”.
